From ChEMBL document CHEMBL1201862, “PubChem BioAssay data set” (2004)
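In this assay, cells in 96-well plates receive the compound at five concentrations for 48 hours. Endpoints are linearly interpolated between the surrounding concentrations. GI50 is the concentration that inhibits growth by half.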 Active and inactive are the calls of the source. Cut-off read from the data, not from the text of the source: active = GI50 up to about 1.1 µM and inactive = higher.

Assays:
Assay in all cases: NCI anticancer screen, dose series, 48 h
CCRF-CEM = tested on: CCRF-CEM
OVCAR-8 = tested on: OVCAR-8
OVCAR-5 = tested on: OVCAR-5
IGROV-1 = tested on: IGROV-1
OVCAR-3 = tested on: OVCAR-3
NCI-H226 = tested on: NCI-H226
BT-549 = tested on: BT-549
786-0 = tested on: 786-0
CAKI-1 = tested on: CAKI-1
SW-620 = tested on: SW-620
HL-60 = tested on: HL-60
SK-MEL-2 = tested on: SK-MEL-2
SF-268 = tested on: SF-268
PC-3 = tested on: PC-3
A498 = tested on: A498
MDA-MB-435 = tested on: MDA-MB-435
UACC-257 = tested on: UACC-257
M14 = tested on: M14
NCI-H460 = tested on: NCI-H460
UO-31 = tested on: UO-31
Malme-3M = tested on: Malme-3M
SNB-19 = tested on: SNB-19
MOLT-4 = tested on: MOLT-4
SN12C = tested on: SN12C
LOX IMVI = tested on: LOX IMVI
HCT-116 = tested on: HCT-116
RXF 393 = tested on: RXF 393
U-251 = tested on: U-251
SF-539 = tested on: SF-539
TK-10 = tested on: TK-10
EKVX = tested on: EKVX
UACC-62 = tested on: UACC-62
DU-145 = tested on: DU-145
NCI-H522 = tested on: NCI-H522
HT-29 = tested on: HT-29
ACHN = tested on: ACHN
COLO 205 = tested on: COLO 205
HOP-92 = tested on: HOP-92
HOP-62 = tested on: HOP-62
A549 = tested on: A549
HCT-15 = tested on: HCT-15
Hs-578T = tested on: Hs-578T
MDA-MB-231 = tested on: MDA-MB-231
HCC 2998 = tested on: HCC 2998
OVCAR-4 = tested on: OVCAR-4
SK-OV-3 = tested on: SK-OV-3
KM12 = tested on: KM12
SK-MEL-5 = tested on: SK-MEL-5
NCI-H23 = tested on: NCI-H23
NCI/ADR-RES = tested on: NCI/ADR-RES
SNB-75 = tested on: SNB-75
SK-MEL-28 = tested on: SK-MEL-28
K562 = tested on: K562
MDA-N = tested on: MDA-N
MCF7 = tested on: MCF7
SF-295 = tested on: SF-295
T47D = tested on: T47D

SMILES: COC(=O)c1cc(C)ccc1C1CN=NC12Cc1ccc(C)cc1C2=O (configuration not stated)
- GI50 (CCRF-CEM): 32.7 µM (inactive)
- GI50 (OVCAR-8): 56.4 µM (inactive)
- GI50 (OVCAR-5): > 100 µM (inactive)
- GI50 (IGROV-1): 63.4 µM (inactive)
- GI50 (OVCAR-3): 36.3 µM (inactive)
- GI50 (NCI-H226): 24.8 µM (inactive)
- GI50 (BT-549): 30.1 µM (inactive)
- GI50 (786-0): > 100 µM (inactive)
- GI50 (CAKI-1): 83.4 µM (inactive)
- GI50 (SW-620): 53.2 µM (inactive)
- GI50 (HL-60): 13 µM (inactive)
- GI50 (SK-MEL-2): 57.9 µM (inactive)
- GI50 (SF-268): 32.7 µM (inactive)
- GI50 (PC-3): 32.4 µM (inactive)
- GI50 (A498): 29.5 µM (inactive)
- GI50 (MDA-MB-435): 32.2 µM (inactive)
- GI50 (UACC-257): 34.3 µM (inactive)
- GI50 (M14): 38.3 µM (inactive)
- GI50 (NCI-H460): 34.1 µM (inactive)
- GI50 (UO-31): 27.7 µM (inactive)
- GI50 (Malme-3M): 25.1 µM (inactive)
- GI50 (SNB-19): 55.2 µM (inactive)
- GI50 (MOLT-4): 23.1 µM (inactive)
- GI50 (SN12C): 44.9 µM (inactive)
- GI50 (LOX IMVI): 31.2 µM (inactive)
- GI50 (HCT-116): 27.1 µM (inactive)
- GI50 (RXF 393): 59.6 µM (inactive)
- GI50 (U-251): 44.7 µM (inactive)
- GI50 (SF-539): 60.4 µM (inactive)
- GI50 (TK-10): 61 µM (inactive)
- GI50 (EKVX): 46.5 µM (inactive)
- GI50 (UACC-62): 54.7 µM (inactive)
- GI50 (DU-145): 82.8 µM (inactive)
- GI50 (NCI-H522): 32.6 µM (inactive)
- GI50 (HT-29): 41.5 µM (inactive)
- GI50 (ACHN): 38.6 µM (inactive)
- GI50 (COLO 205): 15.8 µM (inactive)
- GI50 (HOP-92): 19.1 µM (inactive)
- GI50 (HOP-62): > 100 µM (inactive)
- GI50 (A549): 29.8 µM (inactive)
- GI50 (HCT-15): 40.1 µM
- GI50 (Hs-578T): 45.6 µM (inactive)
- GI50 (MDA-MB-231): 63.8 µM (inactive)
- GI50 (HCC 2998): 31.4 µM (inactive)
- GI50 (OVCAR-4): 20 µM (inactive)
- GI50 (SK-OV-3): 38.1 µM (inactive)
- GI50 (KM12): 29 µM (inactive)
- GI50 (SK-MEL-5): 15.5 µM (inactive)
- GI50 (NCI-H23): 34 µM (inactive)
- GI50 (NCI/ADR-RES): 28.5 µM (inactive)
- GI50 (SNB-75): 30.3 µM (inactive)
- GI50 (SK-MEL-28): > 100 µM (inactive)
- GI50 (K562): 19.4 µM (inactive)
- GI50 (MDA-N): 31.6 µM (inactive)
- GI50 (MCF7): 29.9 µM (inactive)
- GI50 (SF-295): 38 µM (inactive)
- GI50 (T47D): 31.8 µM (inactive)
